The source made the active and inactive calls. The calls are words filed in the database; no cut-off is given here.
Tests used:
[1] = test system: Echinochloa crus-galli; test: Post-emergence herbicidal activity against Echinochloa crus-galli (barnyard grass) assessed as mortality at 6.3 g a.i/10 a applied 11 days after germination as foliar spray; format: functional; conditions: 264 h
[2] = (§1) Pre-emergence phytotoxicity against Glycine max (soybean) assessed as mortality at 6.3 g a.i/10 a; format: organism-based; conditions: in vivo, 6.3 g a.i/10 a
[3] = test system: Abutilon theophrasti; test: Pre-emergence herbicidal activity against Abutilon theophrasti (velvetleaf) assessed as mortality at 6.3 g a.i/10 a; format: functional
[4] = test system: Abutilon theophrasti; test: Post-emergence herbicidal activity against Abutilon theophrasti (velvetleaf) assessed as mortality at 1.6 g a.i/10 a applied 11 days after germination as foliar spray; format: functional; conditions: 264 h
[5] = test system: Zea mays; test: (§2) Post-emergence phytotoxicity against Zea mays (maize) assessed as mortality at 1.6 g a.i/10 a applied 11 days after germination as foliar spray; format: organism-based; conditions: in vivo, other, 264 h
[6] = (§3) Pre-emergence phytotoxicity against Glycine max (soybean) assessed as mortality at 1.6 g a.i/10 a; format: organism-based; conditions: in vivo, 1.6 g a.i/10 a, read-out: Activity
[7] = test system: Glycine max; test: Post-emergence phytotoxicity against Glycine max (soybean) assessed as mortality at 6.3 g a.i/10 a applied 11 days after germination as foliar spray; format: organism-based; conditions: in vivo, other, 264 h
[8] = test system: Ipomoea lacunosa; test: Post-emergence herbicidal activity against Ipomoea lacunosa assessed as mortality at 6.3 g a.i/10 a applied 11 days after germination as foliar spray; format: functional; conditions: 264 h
[9] = (§4) Post-emergence phytotoxicity against Gossypium hirsutum (cotton) assessed as mortality at 6.3 g a.i/10 a applied 11 days after germination as foliar spray; format: organism-based; conditions: in vivo, 6.3 g a.i/10 a
[10] = test system: Abutilon theophrasti; test: Pre-emergence herbicidal activity against Abutilon theophrasti (velvetleaf) assessed as mortality at 1.6 g a.i/10 a; format: functional
[11] = test system: Gossypium hirsutum; test: Pre-emergence phytotoxicity against Gossypium hirsutum (cotton) assessed as mortality at 1.6 g a.i/10 a; format: organism-based; conditions: in vivo, other
[12] = test system: Xanthium strumarium; test: Pre-emergence herbicidal activity against Xanthium strumarium (cocklebur) assessed as mortality at 1.6 g a.i/10 a; format: functional; conditions: for mortality at 16 g/ha: Xanthium strumarium, pre-emergence
[13] = test system: Gossypium hirsutum; test: (§5) Post-emergence phytotoxicity against Gossypium hirsutum (cotton) assessed as mortality at 1.6 g a.i/10 a applied 11 days after germination as foliar spray; format: organism-based; conditions: in vivo, other, 264 h
[14] = test system: Glycine max; test: (§6) Post-emergence phytotoxicity against Glycine max (soybean) assessed as mortality at 1.6 g a.i/10 a applied 11 days after germination as foliar spray; format: organism-based; conditions: in vivo, other, 264 h
[15] = (§7) Pre-emergence phytotoxicity against Gossypium hirsutum (cotton) assessed as mortality at 6.3 g a.i/10 a; format: organism-based; conditions: in vivo, 6.3 g a.i/10 a, read-out: Activity
[16] = Pre-emergence phytotoxicity against Zea mays (maize) assessed as mortality at 1.6 g a.i/10 a; format: organism-based; conditions: in vivo, 1.6 g a.i/10 a
[17] = test system: Xanthium strumarium; test: Pre-emergence herbicidal activity against Xanthium strumarium (cocklebur) assessed as mortality at 6.3 g a.i/10 a; format: functional
[18] = test system: Echinochloa crus-galli; test: Pre-emergence herbicidal activity against Echinochloa crus-galli (barnyard grass) assessed as mortality at 6.3 g a.i/10 a; format: functional
[19] = test system: Ipomoea lacunosa; test: Pre-emergence herbicidal activity against Ipomoea lacunosa assessed as mortality at 6.3 g a.i/10 a; format: functional
[20] = test system: Echinochloa crus-galli; test: Pre-emergence herbicidal activity against Echinochloa crus-galli (barnyard grass) assessed as mortality at 1.6 g a.i/10 a; format: functional
[21] = test system: Zea mays; test: Pre-emergence phytotoxicity against Zea mays (maize) assessed as mortality at 6.3 g a.i/10 a; format: organism-based; conditions: in vivo, other
[22] = test system: Echinochloa crus-galli; test: Post-emergence herbicidal activity against Echinochloa crus-galli (barnyard grass) assessed as mortality at 1.6 g a.i/10 a applied 11 days after germination as foliar spray; format: functional; conditions: 264 h
[23] = test system: Ipomoea lacunosa; test: Pre-emergence herbicidal activity against Ipomoea lacunosa assessed as mortality at 1.6 g a.i/10 a; format: functional; conditions: for mortality at 16 g/ha: Ipomoea lacunosa, pre-emergence
[24] = test system: Abutilon theophrasti; test: Post-emergence herbicidal activity against Abutilon theophrasti (velvetleaf) assessed as mortality at 6.3 g a.i/10 a applied 11 days after germination as foliar spray; format: functional; conditions: 264 h
[25] = test system: Ipomoea lacunosa; test: Post-emergence herbicidal activity against Ipomoea lacunosa assessed as mortality at 1.6 g a.i/10 a applied 11 days after germination as foliar spray; format: functional; conditions: 264 h
[26] = test system: Gossypium hirsutum; test: as §4; format: organism-based; conditions: in vivo, other, 264 h
[27] = test system: Xanthium strumarium; test: Post-emergence herbicidal activity against Xanthium strumarium (cocklebur) assessed as mortality at 1.6 g a.i/10 a applied 11 days after germination as foliar spray; format: functional; conditions: 264 h
[28] = test system: Gossypium hirsutum; test: as §7; format: organism-based; conditions: in vivo, other
[29] = test system: Zea mays; test: Post-emergence phytotoxicity against Zea mays (maize) assessed as mortality at 6.3 g a.i/10 a applied 11 days after germination as foliar spray; format: organism-based; conditions: in vivo, other, 264 h
[30] = test system: Glycine max; test: as §1; format: organism-based; conditions: in vivo, other
[31] = as §2; format: organism-based; conditions: in vivo, 1.6 g a.i/10 a
[32] = test system: Glycine max; test: as §3; format: organism-based; conditions: in vivo, other
[33] = test system: Chenopodium album; test: Pre-emergence herbicidal activity against Chenopodium album assessed as growth inhibition at 25 g a.i/10 a; format: functional, organism-based
[34] = test system: Echinochloa crus-galli; test: Post-emergence herbicidal activity against Echinochloa crus-galli (barnyard grass) assessed as growth inhibition at 25 g a.i/10 a applied 11 days after germination as foliar spray; format: functional, organism-based
[35] = test system: Digitaria sanguinalis; test: Pre-emergence herbicidal activity against Digitaria sanguinalis (hairy crabgrass) assessed as growth inhibition at 25 g a.i/10 a; format: functional, organism-based
[36] = test system: Echinochloa crus-galli; test: Pre-emergence herbicidal activity against Echinochloa crus-galli (barnyard grass) assessed as growth inhibition at 25 g a.i/10 a; format: functional, organism-based
[37] = test system: Digitaria sanguinalis; test: Post-emergence herbicidal activity against Digitaria sanguinalis (hairy crabgrass) assessed as growth inhibition at 25 g a.i/10 a applied 11 days after germination as foliar spray; format: functional, organism-based
[38] = test system: Persicaria nodosa; test: Post-emergence herbicidal activity against Persicaria nodosa assessed as growth inhibition at 25 g a.i/10 a applied 11 days after germination as foliar spray; format: functional, organism-based
[39] = test system: Persicaria nodosa; test: Pre-emergence herbicidal activity against Persicaria nodosa assessed as growth inhibition at 25 g a.i/10 a; format: functional, organism-based
[40] = test system: Xanthium strumarium; test: Post-emergence herbicidal activity against Xanthium strumarium (cocklebur) assessed as mortality at 6.3 g a.i/10 a applied 11 days after germination as foliar spray; format: functional; conditions: 264 h
[41] = as §6; format: organism-based; conditions: in vivo, 1.6 g a.i/10 a
[42] = test system: Cyperus iria; test: Post-emergence herbicidal activity against Cyperus iria assessed as growth inhibition at 25 g a.i/10 a applied 11 days after germination as foliar spray; format: functional, organism-based
[43] = test system: Amaranthus retroflexus; test: Pre-emergence herbicidal activity against Amaranthus retroflexus assessed as growth inhibition at 25 g a.i/10 a; format: functional, organism-based
[44] = test system: Amaranthus retroflexus; test: Post-emergence herbicidal activity against Amaranthus retroflexus assessed as growth inhibition at 25 g a.i/10 a applied 11 days after germination as foliar spray; format: functional, organism-based
[45] = test system: Cyperus iria; test: Pre-emergence herbicidal activity against Cyperus iria assessed as growth inhibition at 25 g a.i/10 a; format: functional, organism-based
[46] = test system: Chenopodium album; test: Post-emergence herbicidal activity against Chenopodium album assessed as growth inhibition at 25 g a.i/10 a applied 11 days after germination as foliar spray; format: functional, organism-based
[47] = as §5; format: organism-based; conditions: in vivo, 1.6 g a.i/10 a
[48] = Abutilon theophrasti, pre-emergence

COc1cc(OC)nc(Sc2cccc(OC(C)C)c2C(=O)O)n1
mortality at 63 g/ha [1]: < 5%
mortality ([2]; read-out: Activity): < 50%
Activity [3]: <50%
mortality at 16 g/ha [4]: > 90%
Activity [5]: Toxic
mortality [6]: < 50%
Activity [7]: Toxic
mortality at 63 g/ha [8]: > 90%
mortality at 264 h [9]: > 90%
Activity [10]: <50%
Activity [11]: < 50%
Activity [12]: <50%
Activity [13]: Non-toxic
Activity [14]: Toxic
mortality [15]: < 50%
mortality ([16]; read-out: Activity): < 50%
Activity [17]: <50%
Activity [18]: <50%
Activity [19]: <50%
Activity [20]: <50%
Activity [21]: < 50%
mortality at 16 g/ha [22]: < 5%
Activity [23]: <50%
mortality at 63 g/ha [24]: > 90%

CCCOc1cccc(Sc2nc(OC)cc(OC)n2)c1C(=O)O
mortality at 63 g/ha [1]: < 5%
mortality ([2]; read-out: Activity): < 50%
mortality at 16 g/ha [25]: < 5%
Activity [5]: Non-toxic
mortality [6]: < 50%
Activity [7]: Toxic
mortality at 63 g/ha [8]: < 5%
Activity [26]: Toxic
Activity [10]: <50%
Activity [11]: Non-toxic
mortality at 16 g/ha [27]: < 5%
Activity [12]: <50%
Activity [13]: Non-toxic
Activity [14]: Non-toxic
Activity [28]: Non-toxic
mortality ([16]; read-out: Activity): < 50%
Activity [17]: <50%
Activity [18]: <50%
Activity [29]: Toxic
Activity [19]: <50%
Activity [20]: <50%
Activity [21]: < 50%
mortality at 16 g/ha [22]: < 5%
Activity [23]: <50%

COc1cc(OC)nc(Oc2cccc(C(F)(F)F)c2C(=O)O)n1
Activity [30]: Toxic
mortality at 16 g/ha [4]: > 90%
mortality at 264 h [31]: > 90%
Activity [32]: Toxic
growth inhibition (GI) [33]: Active
growth inhibition (GI) [34]: Active
growth inhibition (GI) [35]: Active
growth inhibition (GI) [36]: Active
mortality at 63 g/ha [8]: > 90%
Activity [26]: Toxic
growth inhibition (GI) [37]: Active
Activity [11]: Non-toxic
growth inhibition (GI) [38]: Active
growth inhibition (GI) [39]: Active
mortality at 16 g/ha [12]: < 5%
Activity [13]: Toxic
mortality at 63 g/ha [40]: > 90%
mortality at 264 h [41]: > 90%
Activity [28]: Non-toxic
mortality ([16]; read-out: mortality): > 90%
mortality at 63 g/ha ([17]; Xanthium strumarium, pre-emergence): < 5%
growth inhibition (GI) [42]: Active
growth inhibition (GI) [43]: Active
growth inhibition (GI) [44]: Active
growth inhibition (GI) [45]: Active
growth inhibition (GI) [46]: Active
mortality at 16 g/ha [23]: < 5%
mortality at 63 g/ha [24]: > 90%

COc1cc(OC)nc(Oc2cccc(I)c2C(=O)O)n1
mortality at 63 g/ha [1]: > 90%
mortality ([2]; read-out: mortality): > 90%
mortality at 63 g/ha [3, 48]: > 90%
mortality at 16 g/ha [25]: > 90%
mortality at 16 g/ha [4]: > 90%
mortality at 264 h [31]: > 90%
Activity [32]: Toxic
growth inhibition (GI) [33]: Active
growth inhibition (GI) [34]: Active
growth inhibition (GI) [35]: Active
growth inhibition (GI) [36]: Active
mortality at 63 g/ha [8]: > 90%
Activity [26]: Toxic
growth inhibition (GI) [37]: Active
mortality at 16 g/ha [10, 48]: > 90%
Activity [11]: Non-toxic
growth inhibition (GI) [38]: Active
growth inhibition (GI) [39]: Active
mortality at 16 g/ha [12]: < 5%
Activity [13]: Toxic
mortality at 63 g/ha [40]: > 90%
mortality at 264 h [41]: > 90%
Activity [28]: Non-toxic
mortality ([16]; read-out: mortality): > 90%
growth inhibition (GI) [42]: Active
mortality at 63 g/ha ([18]; Echinochloa crus-galli, pre-emergence): > 90%
growth inhibition (GI) [43]: Active
growth inhibition (GI) [44]: Active
growth inhibition (GI) [45]: Active
growth inhibition (GI) [46]: Active
mortality at 16 g/ha [23]: < 5%
mortality at 63 g/ha [24]: > 90%

COc1cc(OC)nc(Sc2cccc(OC)c2C(=O)O)n1
Activity [30]: Toxic
Activity [5]: Toxic
Activity [32]: Toxic
Activity [7]: Toxic
Activity [26]: Non-toxic
Activity [11]: Non-toxic
mortality at 264 h [47]: < 5%
Activity [14]: Toxic
Activity [28]: Non-toxic
mortality ([16]; read-out: Activity): > 90%
Activity [18]: >90%
Activity [29]: Toxic
Activity [20]: >90%
Activity [21]: > 90%
mortality at 63 g/ha [24]: > 90%

Reference: ChEMBL document CHEMBL3046894, “Synthesis and Herbicidal Activity of Pyrimidinyl Salicylic and Thiosalicylic Acids” (J Pestic Sci, 1996)
